SMILES strings stand for the structures. Read-outs that look alike come from different tables or passages of the source.

For orientation: IC50 means the concentration that gives 50% inhibition.

For data set [1], the system named is NCI/ADR-RES multi-drug resistant ovarian cancer cell line. Nature of the data set: Tumor cell growth inhibition, crystal violet (Example 2). It is filed as cell-based. The settings on record: for IC50: read-out: IC50. An excerpt:
(§1) In order to investigate the photolysis of the drugs in a system amenable to cell culture use, a custom UV irradiation apparatus was constructed, consisting of 3 small blacklight fluorescent bulbs (Southern New England Ultraviolet Co., λmax=350 nm) set between two ring stands and suspended at a height of 11.5 cm. The bulbs' housing was reflective aluminum so as to direct as much UV irradiation as possible downward toward the plate. Upon installation in sterile cell culture hood, the power of the system was measured at approximately 6-7 mW using a Scientech laser power meter. Prior to experimentation, the hood and irradiation apparatus was sterilized with 254 nm germicidal UV irradiation overnight. Using this setup, 100 μM of 4,5-dimethoxy-2-nitrobenyl alcohol (DMNA), photodoxazolidine R═H, and glucose-PEG-photodoxazoldine were irradiated in individual wells of a 24-well plate. Initially, 50 μL of a DMSO stock was diluted with 950 μL of PBS and aliquots of 50 μL were removed at various times (0-180 min), mixing by pipetting each time. The timepoints were analyzed by HPLC (method 2) and plotted as fractional conversion versus time. […] Therefore, a second experiment was performed in which the PBS was replaced with 1:1 acetonitrile:water. With this system of 5% DMSO/47.5% acetonitrile/47.5% water, no visible precipitation was produced over the course of the reaction.
(§2) The ovarian carcinoma line NCl/ADR-RES (ADR) was grown in high-glucose Dulbecco's Modified Eagle Medium (DMEM) supplemented with 10% fetal bovine serum (FBS), 200 units/mL of penicillin and 200 μg/mL of streptomycin. The breast carcinoma line MDA-MB-231 was cultured in low-glucose DMEM with the same additives. Both lines were maintained in a humidified incubator with 5% CO2/95% air at 37° C. UV irradiations were performed with the apparatus described above.
(§3) Growth inhibition experiments were performed by seeding cells into 96-well plates or 24-well plates at densities of 1000-1500 cells per well or 8000 cells per well, respectively, and allowing the cells to adhere overnight. The media was then replaced with a range of aqueous concentrations of the drug in question and allowed to incubate at 37° C. with the cells for a span of time (Inc1) which ranged from 1 min to 48 hours. Irradiation was performed at room temperature with the plate's lid removed and ranged from 1 to 30 min. In some experiments, the drug solution was removed following Inc1 and irradiated in clean media or PBS. Following irradiation, the cells were placed back into the 37° C. incubator for a second period of incubation (Inc2), which varied between 1 min and 24 h, prior to replacement with fresh media. Plates which received no irradiation but identical treatment otherwise were done in parallel. The cells were then grown until the no-drug control wells reached approximately 80% confluence or 5 days, whichever was shorter. […] The cells were fixed with 5% formalin in PBS, stained with crystal violet, washed with tap water, and air-dried. The stain was resolubilized in 50% isopropyl alcohol, 50% H2O containing 2% (w/v) SDS. The staining density was read on a multiwell plate reader at 588-600 nm. Percentage cell density was calculated relative to the irradiated no-drug control wells, plotted as a function of drug concentration, and fit using non-linear least squared analysis with a variable-slope dose response model in GraphPad Prism 5.0 software.
(§4) Although the introduction of a long-pass glass filter between the light source and the plate alleviated this effect to a small extent, a maximum irradiation time of 10 min was settled upon. […] Since a media change at that point would remove the cells as well, the re-adherence of the cell population was accomplished by the addition of a large volume (200 μL) of complete media following Inc2, and overnight incubation. Then, a full media change was done to remove the drug. […]

The subject of data set [2] is MDA-MB-231 breast cancer cells. The data set is described as above. It is filed as cell-based, human. The settings on record: for IC50: read-out: IC50.
From the text: as §1, §2, §3, §4

The test system of data set [3] is orthotopic MDA-MB-231 human breast tumor xenografts. Nature of the data set: In vivo mouse efficacy, tumor bioluminescence. Set-up: species or system nude mice. The note with it: 4 mg/kg dox equivalent iv + 18-FDG ip, weekly x6. The procedure: (§5) For reconstitution for intravenous injection into mice, dry photodoxazolidine R═H (23 mg) was dissolved in 785 μL of DMSO for a final concentration of 34.5 mM, labeled “Drug Stock,” and stored dark at −20° C. Shortly before injection, the Drug Stock was thawed and 20-50 μL was transferred to a new tube. To this tube, 6 volumes (relative to the Drug Stock volume) of PEG-400 and 4 volumes of propylene glycol (PG) were added and the solution thoroughly mixed by vortexing. Immediately prior to injection, 9 volumes of saline (0.9% NaCl) was added to the DMSO/PEG/PG solution of photodoxazolidine and mixed by vortexing. […] Therefore, this formulation was used as prepared. This protocol produces a final formulation of 5% DMSO, 30% PEG-400, 20% PG, 45% saline. A standard injection of 100 μL of this formulation delivers 4 mg dox equivalent/kg body weight for a mouse weighing 0.025 kg.
(§6) Luciferase-positive MDA-MB-231 cells were maintained in MEM culture medium supplemented with 10% heat inactivated fetal bovine serum and 2% penicillin/streptomycin. Prior to injection, typsinized cell populations were counted with a Z1 Coulter Particle counter, centrifuged, and resuspended in Hank's Balanced Salt Solution (HBSS) at a concentration of 4.0×10^7 cells/mL. […] Body weight and tumor growth were measured regularly. Tumor growth was measured optically from the bioluminescence signal from injection of luciferin. […]

The nature of data set [4]: In vivo body weight change as indication of toxicity. Also on record: species or system nude mice. The settings on record: 4 mg/kg dox equivalent iv weekly x6; photodoxazolidine with 18-FDG ip. The procedure: as §5, §6

Turning to `COc1cc(COC(=O)N2COC3C(C)OC(OC4CC(O)(C(=O)CO)Cc5c(O)c6c(c(O)c54)C(=O)c4c(OC)cccc4C6=O)CC32)c([N+](=O)[O-])cc1OC` (centres unmarked) [Photodoxazolidine], the “fold drop of IC50 on near UV irradiation” value is given as “more than 30 fold” in data set [1] (10 min UV vs alone) and “approximately 22 fold” in data set [2] (MDA-MB-231, 10 min UV vs alone). Moreover, the half-inhibitory concentration (IC50) in data set [1] (+UV 10 min, near UV 350 nm) was 0.11 µM; in data set [1] (prodrug alone, no UV), 3.5 ± 0.8 µM; in data set [1] (prodrug alone), approximately 3.5 µM; in data set [2] (MDA-MB-231, +UV 10 min, near UV 350 nm) it was 0.073 µM; in data set [2] (MDA-MB-231, prodrug alone, no UV, listed as Photodoxaz), 1.6 ± 0.12 µM; in data set [2] (MDA-MB-231, prodrug alone, no UV, listed as photodoxazolidine) it was approximately 1.6 µM. Also, the “times more toxic than doxorubicin alone” value in data set [1] (prodrug alone) is reported as 2-3 times. Besides, the tumor bioluminescence result in data set [3] is on record as “significant reductions in tumor bioluminescence”. The body weight change result in data set [4] was “no significant change”.

The values are drawn from patent publication US10912767B2, “Anthracycline prodrugs and methods of making and using the same” (THE REGENTS OF THE UNIVERSITY OF COLORADO, priority 2015, dated 2021).
